As usually defined, the melting point is the temperature, or range, at which the solid turns liquid.

The values that follow come from a melting point compilation (Tetko et al.; mined from patent text by program, amines drawn as free bases though some values may be those of a salt).

Molecule `CCCN(CCC)C1Cc2cc3c(cc2C1)C(=O)N(c1ccc(C#N)cc1)C3=O` gave a melting point of 250 to 251 °C.

Molecule `O=C(Nc1ccc2c(c1)S(=O)(=O)NC1CCCN21)c1ccccc1` (centres undefined) registered a melting point of 293 °C.

For the molecule `O=C1C=C(c2c(Br)cc(Br)cc2Br)C(=O)N1`, the melting point lay within 140 to 143 °C.

Turning to `C=CCC(NC(=O)C(CCCCN)NC(=O)Cc1cn(CC=C)c2ccccc12)C(=O)OC` (centres undefined), the melting point is 103 to 106 °C.

`CN1CCN(c2cnc3ccccc3n2)CC1`: the melting point is 109 to 111 °C.

As for `O=C=NC1(N=NC2(N=C=O)CCCCC2)CCCCC1`, the melting point lay in the range of 38 to 40 °C.

Take `CN1CCCC1=NC(=O)Nc1ccc(Cl)cc1`: the melting point fell in the range of 138 to 141 °C.

`CC(=O)Nc1nc(CCc2ccc(CN3CCN(C(=O)OC(C)(C)C)CC3)cc2)cs1` had a melting point of 140 to 141 °C.

In the case of `CNc1nc(C(=O)c2ccc([N+](=O)[O-])c(OC)c2)n2ccccc12`, the melting point turned out to be 208 °C.

In turn, `C=CC(=O)Nc1ccc2c(Nc3cccc(C)c3)ncnc2c1` returned a melting point of 270 °C.

`NC1CN(c2c(F)cc3c(=O)c(C(=O)O)cn(C4CC4)c3c2F)C1` displayed a melting point of 214 to 216 °C.

Turning to `COc1ccccc1NC(=O)Nc1nc(Nc2ccc(CC(=O)O)cc2)nc(Oc2ccc3ccccc3c2)n1`, the melting point fell in the range of 232 to 240 °C.

In turn, `Cc1c(C)c2c(c(C)c1NC(=O)NCCO)C(c1ccc(C(C)C)cc1)CO2` (centres undefined) returned a melting point of 186 to 188 °C.

The molecule `C=C1C(=C)C2OC1C1=C2Cc2c(cccc2OC)C1` (centres undefined) yielded a melting point of 145 to 147 °C.

Turning to `Cc1ccccc1NC(=O)CN1C[C@@H](C)N(S(=O)(=O)c2cccc(N)c2)[C@@H](C)C1`, the melting point lay in the range of 202 to 203 °C.

`Cc1ccc(S(=O)(=O)OC(=O)c2cccc(C(=O)OS(=O)(=O)c3ccc(C)cc3)c2)cc1` gave a melting point of 172 to 178 °C.

As for `O=C1c2ccccc2C(=O)C1c1cccc(O)c1`, the melting point lay within 139 to 141 °C.

Regarding `CCn1cc(C(=O)NC2CCCCC2)c(=O)c2cnc(N3CCCC3)nc21`, the melting point is 265 to 267 °C.

In turn, `CS(=O)(=O)Nc1ccc(Cl)cc1C(=Cc1ccc2ccccc2c1)C(N)=O` registered a melting point of 179 to 184 °C.

Molecule `CCOC(=O)C(C(=O)OCC)c1ccc(OCC2=NCCN2)cc1` displayed a melting point of 72 to 110 °C.

The molecule `O=C(Nc1ccccc1Cl)Oc1ccc2c(c1)CCCN2Cc1ccccc1` registered a melting point of 130 °C.

On to `COC(=O)CC1=c2ccccc2=Cc2ccccc2O1`, for which the melting point fell in the range of 59 to 63 °C.

In turn, `COc1ccc(-c2ccc(C(=O)Nc3cc4ncc(CN5CCCC5)cc4cc3C)cc2)cc1` yielded a melting point of 194 to 198 °C.

Turning to `CC(C)n1nc(-c2cnc(N)nc2-c2ccccc2Cl)ccc1=O`, the melting point is 227 to 228 °C.

`O=C(Nc1ccccc1)OCCCCCCCCCCC=C(F)F`: the melting point fell in the range of 54 to 56 °C.

Consider `OC1CSC(Oc2ccc(-c3cnccc3F)nc2-c2cnccc2F)C(O)C1O` (centres undefined), for which the melting point was found to be 209 °C.

With `Cc1[nH]c(=O)[nH]c1-c1cc(C(C)(C)C)c(O)c(C(C)(C)C)c1`, the melting point is greater than 270 °C.

`CCN(C(=O)Cl)c1ccc2c(c1)OCO2` returned a melting point of 68 to 69 °C.

Consider `CCOC(=O)c1cc(=O)c2c(OCCOc3ccc([N+](=O)[O-])cc3)cccc2o1`, for which the melting point fell in the range of 158 to 161 °C.

In turn, `NC(=O)c1cccc(C2(O)C3CCC2CN(Cc2ccccc2)C3)c1` (centres undefined) showed a melting point of 210 to 214 °C.

For the molecule `Cn1c(CC(=O)NC2CN3CCC2CC3)cc2ccccc21` (centres undefined), the melting point was in the range of 185 to 187 °C.

Regarding `CCC1C(=O)Oc2c(Oc3ccccc3Cl)cccc21` (centres undefined), the melting point lay within 78 to 79 °C.

As for `COc1ccc(C(=O)SC[C@@H](C)C(=O)N2CCC[C@H]2C(=O)O)cc1`, the melting point is 140 to 141 °C.

Take `c1cc2[nH]ncc2cc1OC1CCCCC1`: the melting point fell in the range of 144 to 146 °C.

`CC(C)NC(=O)c1ccc(C(=O)N2CCN(c3ncccc3N)CC2)nc1`: the melting point was in the range of 142 to 143 °C.

On to `CC(CCCO)C1CCC2C3C(O)CC4CC(O)CCC4(C)C3CCC12C` (centres undefined), for which the melting point fell in the range of 116 to 118 °C.

In turn, `COc1ccc(C(=O)Nc2cccc(C(=O)O)c2)c2c1OCCO2` registered a melting point of 283 to 284 °C.

As for `CC(C)CC12CCC3C4CCC(=O)C=C4CCC3C1CCC2OC(=O)CCc1ccccc1` (centres undefined), the melting point lay within 101 to 106 °C.

For `Cc1cccc(-c2[nH]c(C(C)C)nc2-c2ccc(F)c(-c3c[nH]c(C)n3)c2)n1`, the melting point was in the range of 230 to 234 °C.

For the molecule `COc1cc(C(=O)O)ccc1Cc1cn(C)c2ccc(NC(=O)NC3CCCC3)cc12`, the melting point fell in the range of 203 to 206 °C.

On to `NC1(c2cccc(Br)c2)CC1`, for which the melting point lay in the range of 135 to 137 °C.

`COc1cccc(OC)c1C(=O)NC(=S)NNC(=O)c1cnc2ccccc2c1`: the melting point was 242 to 243 °C.

On to `CCn1cc(C(=O)O)c(=O)c2cc(Cl)c(N3CCN(Cc4ccccc4)CC3)cc21`, for which the melting point is 228 °C.

The molecule `Fc1ccc2[nH]cc(CCCCN3CCN(c4cccc(Cl)c4Cl)CC3)c2c1` had a melting point of 147 to 148 °C.

Regarding `CCCCNC(=O)Nc1ccc(OCC2CC2)cc1C(=O)NCC1CCN(C(c2ccccc2)c2ccccc2)CC1`, the melting point was in the range of 190 to 192 °C.

Turning to `CCCCCCCNC(=O)Nc1ccc(-n2ccnc2)cc1C(=O)NCC1CCN(C(c2ccccc2)c2ccccc2)CC1`, the melting point is 183 to 185 °C.

With `COc1ccc([C@]2(C)CNC(=O)O2)cc1OC1CCC1`, the melting point was determined as 132 °C.

As for `COc1ccc(C(=O)c2c(-c3ccc(OC)cc3)sc3ccccc23)cc1`, the melting point was in the range of 124 to 126 °C.

`Fc1ccc2[nH]cc(C3=CCN(CC4COc5ccc6[nH]c(C(F)(F)F)nc6c5O4)CC3)c2c1` (centres undefined): the melting point lay in the range of 236 to 238 °C.

In turn, `Cc1cc(-c2cc(C(F)(F)F)nn2-c2ccc(S(N)(=O)=O)c(F)c2)ccc1-c1ccco1` had a melting point of 78 to 80 °C.

`N#CC1CN1C(=O)c1ccc(Cl)cc1Cl` (centres undefined) gave a melting point of 95 to 97 °C.

The molecule `O=c1ccc(S(=O)(=O)c2cc3cc(Cl)ccc3[nH]2)n[nH]1` had a melting point greater than 250 °C.

Turning to `C=CCC(O)(Cn1cncn1)c1ccc(Cl)cc1Cl` (centres undefined), the melting point amounted to 101 °C.

Turning to `Cc1noc(NS(=O)(=O)c2ccccc2)c1Cl`, the melting point fell in the range of 140 to 143 °C.

As for `O=C(O)c1cccc(-c2cccc3nc(Cc4cccc(C(F)(F)F)c4)oc23)c1`, the melting point fell in the range of 175 to 176 °C.

In turn, `CCON=C(CC)C1=C(O)CC(c2ccc3c(c2)N(CC#N)C(=O)CO3)CC1=O` (centres undefined) registered a melting point of 156 to 159 °C.

As for `CCCCCCCCCCCC/C(=C\C=C\C(=O)O)c1ccc(OC)cc1`, the melting point was 85 to 88 °C.

As for `Cc1c(F)c(F)c(F)c(F)c1C(=O)O`, the melting point fell in the range of 80 to 82 °C.

In the case of `O=C1CCc2ccc(OCCCCCl)cc2N1`, the melting point lay in the range of 104 to 106 °C.

Molecule `CCOC(=O)[C@H](C)NCC(=O)Nc1c2c(nc3ccccc13)CCCC2` returned a melting point of 101 to 102 °C.

For `COc1ccc(NN=C(Sc2cc(C)cc(C)c2)C(C)=O)cc1`, the melting point is 165 to 167 °C.

As to `CCCCOc1c(NC(C)(C)CC)c(=O)c1=O`, the melting point was 56 to 57 °C.

`CC(C)n1cc(-c2cnc3c(c2)nnn3Cc2ccc3ncccc3c2)cn1` had a melting point of 126 to 128 °C.

The molecule `COC(=O)CCc1ccc(OCCSCCO)cc1` had a melting point of 47 to 48 °C.

Molecule `CCCCCC(CC(=O)Nc1cc(C(=O)NC(=O)C(C)C)ccc1C(C)(C)C)c1ccc(OC)cc1OC` (centres undefined) gave a melting point of 157 to 159 °C.

With `c1ccc(OCCn2ccnc2)cc1`, the melting point came out at 88 °C.

With `CC(C)c1cc(C(=O)Nc2ccc(C(=O)O)cc2)oc1C(C)C`, the melting point lay within 120 to 121 °C.

For the molecule `CC1(CCOc2ccc(/C=C/C(=O)O)c(Oc3ncc(C(F)(F)F)cc3Cl)c2)OCCO1`, the melting point is 144 to 146 °C.

`CC(C)(C)OC(=O)NCCC(=O)NCc1cccc2c1C(=O)N(C1CCC(=O)NC1=O)C2=O` (centres undefined) had a melting point of 96 to 98 °C.

On to `Cn1cc(C(=O)NCc2ccc(Cl)cc2)c(=O)c2cc(CCCO)sc21`, for which the melting point fell in the range of 197 to 198 °C.

Turning to `Cc1noc(NS(=O)(=O)c2ccccc2N)c1C`, the melting point fell in the range of 116 to 118 °C.

Molecule `Clc1ccc2c(c1)C(c1ccccc1Cl)NCc1c[nH]cc1-2` (centres undefined) showed a melting point of 211 to 212 °C.

In the case of `Clc1ccc([C@@H]2CNc3ccccc3S2)cc1`, the melting point lay within 151 to 153 °C.

As to `COC(=O)[C@H](Cc1ccc(NC=O)cc1)NC(C)=O`, the melting point stood at 126 °C.

Take `CCCCOc1c(CNC(=O)OC(C)(C)C)n(CC2CC2)c(=O)c2ccc(-c3cnco3)cc12`: the melting point was in the range of 160 to 161 °C.

`C[C@@H](SCCc1nccn1C)[C@](O)(Cn1cncn1)c1ccc(F)cc1F` (racemic) registered a melting point of 175 to 176 °C.

`CC(C)(C)CC(=O)Nc1ccc2ncn3c(=O)c(C(=O)O)cnc3c2c1` gave a melting point of 304 to 306 °C.

The molecule `CCc1nc2cc(Nc3nccc(-c4ccc(N5CCN(CC)CC5)nc4)n3)ccc2o1` yielded a melting point of 174 to 176 °C.

`O=C(CCl)Nc1ccc2cn[nH]c2c1` showed a melting point of 155 to 160 °C.

In turn, `CCCNCCc1ccc(NS(=O)(=O)c2ccc(OC(F)(F)F)cc2)cc1` gave a melting point of 151 to 154 °C.

As for `O=[N+]([O-])c1cccc(Nc2nccc(-c3ccncc3)n2)c1`, the melting point lay within 282 to 284 °C.

Regarding `O=C1NC(=O)C(Oc2ccc3ccccc3c2)S1` (centres undefined), the melting point was in the range of 221 to 222 °C.

Consider `CCCCN(Cc1ccccc1)C(=O)Nc1cccc(Cl)c1`, for which the melting point was 69 to 70 °C.

`Cc1c(Br)c(C)c2c(OS(=O)(=O)C(F)(F)F)coc2c1C`: the melting point lay within 54 to 55 °C.

The molecule `CCC(Sc1ccc(CCC(=O)O)c(C)c1)c1ccc2nc(-c3ccc(C(F)(F)F)cc3)sc2c1` (centres undefined) returned a melting point of 105 to 108 °C.

`COC(=O)N(C(=O)c1ccc(C2=NOC(c3cc(Cl)cc(Cl)c3)(C(F)(F)F)C2)cc1C)c1cncnc1` (centres undefined) registered a melting point of 72 to 76 °C.

As to `COC(=O)C=Cc1ccc(Br)nc1`, the melting point came to 150 °C.

Take `COc1ccc(/C(=C\C=C\C(=O)NCCCCc2cccnc2)c2ccccc2OC)cc1`: the melting point fell in the range of 164 to 165 °C.

In turn, `CCCCS(=O)c1ccc(-n2[nH]c3ccccc3c2=O)cc1` (centres undefined) yielded a melting point of 168 to 169 °C.
